Species: Rattus norvegicus
Assay: DrugMatrix - Regimen: Daily Repeat
Assay type: toxicity, organism-based, Sprague-Dawley
Set-up: regimen Daily Repeat, gender Male, age 6-8 weeks
Conditions: in vivo, po, route oral GAVAGE, vehicle .5 % CMC; for BASOPHIL / EOSINOPHIL / ERYTHROCYTE COUNT / HEMATOCRIT / HEMOGLOBIN / LEUKOCYTE COUNT / LYMPHOCYTE / MEAN CORPUSCULAR HEMOGLOBIN / MEAN CORPUSCULAR HEMOGLOBIN CONCENTRATION / MEAN CORPUSCULAR VOLUME / MONOCYTE / NEUTROPHIL / PLATELET COUNT: tissue Blood; for ALANINE AMINOTRANSFERASE / ALBUMIN / ALKALINE PHOSPHATASE / ASPARTATE AMINOTRANSFERASE / BLOOD UREA NITROGEN / CHLORIDE / CHOLESTEROL / CREATINE PHOSPHOKINASE / CREATININE / GLUCOSE / PHOSPHORUS / POTASSIUM / SODIUM / TOTAL BILIRUBIN / TOTAL PROTEIN: tissue Plasma
[1] = 0 mg/kg, 72 h, dose level Control, time 3 day
[2] = 0 mg/kg, 120 h, dose level Control, time 5 day
[3] = 3 mg/kg, 72 h, dose level Low, time 3 day
[4] = 3 mg/kg, 120 h, dose level Low, time 5 day

For `O=C1CCC(N2C(=O)c3ccccc3C2=O)C(=O)N1` (configuration not stated) [THALIDOMIDE], the BASOPHIL [1] was 1.52%, the EOSINOPHIL [1] was 0.98% and the “ERYTHROCYTE COUNT” value [1] was 6.96 x10E6/uL. The HEMATOCRIT [1] was 44.65%, the HEMOGLOBIN [1] was 13.62 G/DL and the “LEUKOCYTE COUNT” value [1] was 9.83 x10E3/uL. The LYMPHOCYTE [1] was 76.48%, the “MEAN CORPUSCULAR HEMOGLOBIN” value [1] was 19.57 pg and the “MEAN CORPUSCULAR HEMOGLOBIN CONCENTRATION” value [1] was 30.47 G/DL. The “MEAN CORPUSCULAR VOLUME” value [1] was 64.22 fL, the MONOCYTE [1] was 2.13% and the NEUTROPHIL [1] was 18.6%. The “PLATELET COUNT” value [1] was 1217.17 x10E3/uL, the “ALANINE AMINOTRANSFERASE” value [1] was 41 u/L and the ALBUMIN [1] was 3.77 G/DL. The “ALKALINE PHOSPHATASE” value [1] was 411.83 u/L, the “ASPARTATE AMINOTRANSFERASE” value [1] was 62.83 u/L and the “BLOOD UREA NITROGEN” value [1] was 15.17 mg/dL. The CHLORIDE [1] was 104.33 MEQ/L, the CHOLESTEROL [1] was 71.17 mg/dL and the “CREATINE PHOSPHOKINASE” value [1] was 123.5 u/L. It also gave a CREATININE [1] of 0.55 mg/dL, a GLUCOSE [1] of 182.67 mg/dL and a PHOSPHORUS [1] of 11.23 mg/dL. For the same molecule, the POTASSIUM [1] was 7.03 MEQ/L, the SODIUM [1] was 148 MEQ/L and the “TOTAL BILIRUBIN” value [1] was 0.57 mg/dL. The “TOTAL PROTEIN” value [1] was 6.85 G/DL, the BASOPHIL [2] was 1.35% and the EOSINOPHIL [2] was 0.43%. For the same molecule, the “ERYTHROCYTE COUNT” value [2] was 6.96 x10E6/uL, the HEMATOCRIT [2] was 44.35% and the HEMOGLOBIN [2] was 13.98 G/DL. For the same molecule, the “LEUKOCYTE COUNT” value [2] was 9.45 x10E3/uL, the LYMPHOCYTE [2] was 80.83% and the “MEAN CORPUSCULAR HEMOGLOBIN” value [2] was 20.1 pg. For the same molecule, the “MEAN CORPUSCULAR HEMOGLOBIN CONCENTRATION” value [2] was 31.52 G/DL, the “MEAN CORPUSCULAR VOLUME” value [2] was 63.72 fL and the MONOCYTE [2] was 2.37%. For the same molecule, the NEUTROPHIL [2] was 14.05%, the “PLATELET COUNT” value [2] was 1298 x10E3/uL and the “ALANINE AMINOTRANSFERASE” value [2] was 42.17 u/L. The ALBUMIN [2] was 3.77 G/DL, the “ALKALINE PHOSPHATASE” value [2] was 419 u/L and the “ASPARTATE AMINOTRANSFERASE” value [2] was 66.67 u/L. For the same molecule, the “BLOOD UREA NITROGEN” value [2] was 16.67 mg/dL, the CHLORIDE [2] was 103.17 MEQ/L and the CHOLESTEROL [2] was 66.33 mg/dL. For the same molecule, the “CREATINE PHOSPHOKINASE” value [2] was 148.33 u/L, the CREATININE [2] was 0.58 mg/dL and the GLUCOSE [2] was 196.83 mg/dL. It also gave a PHOSPHORUS [2] of 11.8 mg/dL, a POTASSIUM [2] of 6.47 MEQ/L and an SODIUM [2] of 148.33 MEQ/L. The “TOTAL BILIRUBIN” value [2] was 0.53 mg/dL, the “TOTAL PROTEIN” value [2] was 6.77 G/DL and the BASOPHIL [3] was 1.53%. The EOSINOPHIL [3] was 0.27%, the “ERYTHROCYTE COUNT” value [3] was 6.9 x10E6/uL and the HEMATOCRIT [3] was 43.27%. The HEMOGLOBIN [3] was 13.43 G/DL, the “LEUKOCYTE COUNT” value [3] was 12.1 x10E3/uL and the LYMPHOCYTE [3] was 84.1%. For the same molecule, the “MEAN CORPUSCULAR HEMOGLOBIN” value [3] was 19.47 pg, the “MEAN CORPUSCULAR HEMOGLOBIN CONCENTRATION” value [3] was 31.03 G/DL and the “MEAN CORPUSCULAR VOLUME” value [3] was 62.73 fL. For the same molecule, the MONOCYTE [3] was 2.13%, the NEUTROPHIL [3] was 11.37% and the “PLATELET COUNT” value [3] was 1452.67 x10E3/uL. For the same molecule, the “ALANINE AMINOTRANSFERASE” value [3] was 33 u/L, the ALBUMIN [3] was 3.63 G/DL and the “ALKALINE PHOSPHATASE” value [3] was 276 u/L. For the same molecule, the “ASPARTATE AMINOTRANSFERASE” value [3] was 53.33 u/L, the “BLOOD UREA NITROGEN” value [3] was 11 mg/dL and the CHLORIDE [3] was 103 MEQ/L. The CHOLESTEROL [3] was 57.67 mg/dL, the “CREATINE PHOSPHOKINASE” value [3] was 135.33 u/L and the CREATININE [3] was 0.5 mg/dL. For the same molecule, the GLUCOSE [3] was 177.33 mg/dL, the PHOSPHORUS [3] was 12.77 mg/dL and the POTASSIUM [3] was 6.87 MEQ/L. The SODIUM [3] was 148.67 MEQ/L, the “TOTAL BILIRUBIN” value [3] was 0.33 mg/dL and the “TOTAL PROTEIN” value [3] was 6.27 G/DL. The BASOPHIL [4] was 2.03%, the EOSINOPHIL [4] was 0.3% and the “ERYTHROCYTE COUNT” value [4] was 6.85 x10E6/uL. The HEMATOCRIT [4] was 42.57%, the HEMOGLOBIN [4] was 13.47 G/DL and the “LEUKOCYTE COUNT” value [4] was 11.43 x10E3/uL. For the same molecule, the LYMPHOCYTE [4] was 80.43%, the “MEAN CORPUSCULAR HEMOGLOBIN” value [4] was 19.63 pg and the “MEAN CORPUSCULAR HEMOGLOBIN CONCENTRATION” value [4] was 31.7 G/DL. For the same molecule, the “MEAN CORPUSCULAR VOLUME” value [4] was 62.13 fL, the MONOCYTE [4] was 3.03% and the NEUTROPHIL [4] was 13.67%. For the same molecule, the “PLATELET COUNT” value [4] was 1535.33 x10E3/uL, the “ALANINE AMINOTRANSFERASE” value [4] was 37 u/L and the ALBUMIN [4] was 3.47 G/DL. For the same molecule, the “ALKALINE PHOSPHATASE” value [4] was 320 u/L, the “ASPARTATE AMINOTRANSFERASE” value [4] was 57 u/L and the “BLOOD UREA NITROGEN” value [4] was 12 mg/dL. For the same molecule, the CHLORIDE [4] was 102.67 MEQ/L, the CHOLESTEROL [4] was 62.33 mg/dL and the “CREATINE PHOSPHOKINASE” value [4] was 138 u/L. The CREATININE [4] was 0.5 mg/dL, the GLUCOSE [4] was 187.67 mg/dL and the PHOSPHORUS [4] was 11.93 mg/dL. The POTASSIUM [4] was 6.03 MEQ/L, the SODIUM [4] was 146.33 MEQ/L and the “TOTAL BILIRUBIN” value [4] was 0.3 mg/dL. The “TOTAL PROTEIN” value [4] was 6.13 G/DL.

Source: ChEMBL document CHEMBL3885881, “DrugMatrix”
